Earlier results as cited in patent US11324772B2, “Periodontal gel composition and method of use” (PRUDENTIX LTD., priority 2017, dated 2022).

CCCCCCCCN=c1ccn(CCCCCCCCCCn2ccc(=NCCCCCCCC)cc2)cc1 [octenidine, 1,1′,4,4′-tetrahydro-N,N′-dioctyl-1,1′-decametylenedi-(4-pyridylideneamine)]
pH range in which octenidine is stable and maintains its antimicrobial activity (pH): 1.6-12.2 | temperature up to which it can be sterilized by steam in aqueous solutions (steam, aqueous solutions): up to 130 °C
